Results: publication PMC10182601, “Biological evaluation of novel gemcitabine analog in patient-derived xenograft models of pancreatic cancer” (BMC Cancer, 2023)
Where a name gives a salt, the structure may show the parent alone.

What was measured:
[1] = system: PPCL-192 cells; test: Cell migration (wound) assay, PPCL-192; format: cell-based, human; details: PPCL-192, 5 µM, 48 h
Description: A cell migration assay was conducted to determine the effect of 4NSG-SLN on PPCL-192 and PPCL-46 cell motility. The Ibidi cell culture inserts were used to grow the cells into two confluent monolayers separated by a "wound" for this assay. The cells were seeded into 24-well plates at a cell density of 2.5 × 10^5, 48 h at 37 °C. At 75% confluency, cells formed adherent monolayers on either side of the tissue culture insert. Before treatment, the cells were serum-starved by replacing complete media with base media (DMEM) and then further incubated for 48 h. After serum starvation, the inserts were gently removed to generate a gap or "wound" between the two confluent layers of cells, and the monolayers were washed with experimental media. Afterward, cells were exposed to 5 μM concentration of GemHCl and 4NSG-SLN treatments. Images of the cells invading the wound were then captured after 48 h with a Nikon Ti Eclipse microscope.

[2] = Pharmacokinetic study in mice (i.v. bolus); format: in vivo; details: single i.v. bolus, Gem equivalent (b110 prints 20 mg/kg)
Description: For pharmacokinetic (PK) studies, normal healthy mice were grouped into control, GemHCl, and 4NSG-SLN. […] After the injection, aliquots of blood samples were collected at predetermined time points (5, 10, 15, 30, 60, 120, 240, 360, 720, and 1440 min). Blood samples collected were treated with 2 mL of an extraction solvent (15% of isopropyl alcohol in ethyl acetate). The mixture was vortexed for 30 s and centrifuged at 3,000 rpm for 15 min, and the supernatant was collected and vaporized to dry overnight in a water bath. Residual solvent was removed by placing the dried samples in vacuum chamber.
Five hundred microliters (500 uL) of mobile phase solution was used to reconstitute the dried sample (mobile phase solution was made up of 5% acetonitrile in 10 mM dihydrogen phosphate buffer, pH adjusted to 3). The sample solution was centrifuged at 3,000 rpm for 15 min, supernatant collected and filtered, and samples analyzed for Gem using HPLC. The PK parameters were determined using PKSolver software.
To determine the concentration of Gem, supernatant from mouse plasma was spiked with aliquots of 0.5 μg/ml of Gem. The chromatographic analysis was performed according to the method described with minor modifications. The samples were collected using supernatants (10µL), aliquots of control (spiked), and mouse plasma. The chromatographic system consisted of an HPLC (Agilent Technologies, 1290 infinity) equipped with an auto-sampler, diode array detector (DAD), and pumps. Separation was performed using a reverse phase column (Zobrax Rapid Resolution High Definition (RRHD) Eclipse plus C18, 2.1 × 50 mm, 1.8 µm). A flow rate of 250 µL/min and injection volume of 10 μL at ambient temperature was maintained at 25 ± 1 °C while detection was performed at 268 nm. Before analysis, the reverse phase column was equilibrated with a mobile phase of 5% acetonitrile in 10 mM dihydrogen phosphate buffer, pH adjusted to 2.5 with trifluoroacetic acid (TFA). Isocratic elution was performed throughout the entire analysis, including internal standards. A calibration curve was prepared using Gem standard solutions with a concentration range of 0.063–2.0 μg/mL. A plot of the peak areas as a function of Gem concentration was plotted, and the linear equation of the calibration curve given as y = mx + c was determined, where y is the peak area, m is the slope, x is the concentration of Gem, and c is the y—intercept.

[3] = system: PCa PDX tumor from White patients; test: Tumor efficacy in PDX mice bearing tumors from White PCa patients; format: in vivo; details: 30 mg/kg Gem equivalent i.v. twice weekly for 3 weeks
Text: The implantation of surgical tumor tissue into immuno-compromised mice was described previously. A viable portion of resected tissue 2 × 2 mm in size was briefly isolated immediately from surgically resected primary PCa specimens (from Blacks and White patients) with care to minimize critical ischemia time. The PCa tissues were then implanted subcutaneously into an 8-week-old mouse (The Jackson Laboratory, Bar Harbor, ME). The xenografts were allowed to grow to a maximum diameter of 1.5 cm before passage and in vitro culture.
Mice-bearing surgically implanted tumors obtained from Black and White patients with sizes of 70–100 mm^3 were randomized into groups as control, GemHCl, and 4NSG-SLN (n = 5/group). Baseline tumor volume was established, and dosing initiation began on day 1 with intravenous administration of 30 mg/kg Gem (twice weekly for 3 weeks) with an equivalent dose of GemHCl and 4NSG-SLN [42]. Once tumors became palpable, their volume was measured thrice per week, and the mice's weight was recorded twice weekly. Tumor volumes were measured using digital calipers and calculated using the following equation: V = (L*(W)^2)/2, where V is the volume (mm^3), W(width) is the smaller of two perpendicular tumor axes, and the L (length) is the larger of two vertical axes. Mean tumor volume growth curves were calculated for each treatment group.

[4] = system: EGFR; test: Immunohistochemistry of PDX tumor tissue, EGFR; format: in vivo, mice; details: for EGFR % Moderate Positive Cells / EGFR % Positive / EGFR % Strong Positive Cells / EGFR % Weak Positive Cells / EGFR %Negative Cells / EGFR H Score: IHC
Description: [The source words this procedure for another target and reports this target under the same test.] Tissue samples from mice bearing tumors from Black and White PCa patients post treatments with GemHCl and 4NSG-SLN were excised and immediately washed with PBS, fixed (10% buffered formalin) for 24 h, and transferred to 70% ethanol for histopathological analysis. Histology was performed by HistoWiz Inc. (Histowiz.com) according to manufacturer protocol. Samples were embedded in paraffin, and 4 μm sections were prepared. Immunohistochemistry was performed on a Bond Rx autostainer (Leica Biosystems) with enzyme treatment (1:1000) using standard protocols (https://home.histowiz.com/faq/). Samples were incubated overnight with primary antibodies (Antibodies used were rat monoclonal F4/80 primary antibody (eBioscience, 14–4801, and 1:200), and immunohistochemical staining was done using rabbit anti-rat secondary (Vector Labs, 1:100). Bond Polymer Refine Detection was used per the manufacturer's protocol (Leica Biosystems). After staining, sections were dehydrated and filmed, coverslipped using a Tissue-Tek Prisma coverslip (Sakura). Whole slide scanning (40x) was performed on an Aperio AT2 (Leica Biosystems).

[5] = BT PDX tumor tissue after treatment
[6] = WT PDX tumor tissue after treatment

clearance ([2]; mouse, plasma, iv, read-out: Cl (clearance) (converted)): 0.355 mL/min | Vd ([2]; mouse, plasma, iv, read-out: Vd (volume of distribution)): 0.0217 ± 0.0019 L | k el ([2]; mouse, plasma, iv, read-out: k10 (elimination rate constant) (converted)): 0.000281 s⁻¹ | half-life ([2]; mouse, plasma, iv, read-out: t1/2 (half-life) (converted)): 42 ± 0.6 min | AUC(0-t) [2]: 28200 ± 4300 ng·h/mL
SMILES: Nc1ccn([C@@H]2O[C@H](CO)[C@@H](O)C2(F)F)c(=O)n1 [GemHCl, Gemcitabine hydrochloride]
Number of cells migrated [1]: 84 ± 3.1 | Mean terminal tumor volume ([3]; day 0, WT (patient tumor) PDX mice): 0 mm^3 | Mean terminal tumor volume ([3]; day 1, WT PDX mice): 13.9 ± 2 mm^3 | Mean terminal tumor volume ([3]; day 3, WT PDX mice): 27.8 ± 4 mm^3 | Mean terminal tumor volume ([3]; day 5, WT PDX mice): 39.7 ± 5 mm^3 | Mean terminal tumor volume ([3]; day 7, WT PDX mice): 43.5 ± 16 mm^3 | Mean terminal tumor volume ([3]; day 9, WT PDX mice): 177.8 ± 60 mm^3 | Mean terminal tumor volume ([3]; day 11, WT PDX mice): 583.2 ± 227 mm^3 | Mean terminal tumor volume ([3]; day 13, WT PDX mice): 646.9 ± 240 mm^3 | Mean terminal tumor volume ([3]; day 15, WT PDX mice): 752.6 ± 241 mm^3 | Mean terminal tumor volume ([3]; day 17, WT PDX mice): 850.8 ± 205 mm^3 | Mean terminal tumor volume ([3]; day 19, WT PDX mice): 868.2 ± 294 mm^3 | Mean terminal tumor volume ([3]; day 21, WT PDX mice): 1053 ± 86 mm^3 | Mean terminal tumor volume ([3]; day 23, WT PDX mice): 1344.7 ± 171 mm^3 | Mean terminal tumor volume ([3]; day 25, WT PDX mice): 1748.2 ± 223 mm^3 | EGFR % Moderate Positive Cells [4, 5]: 0.6 ± 0.2% | EGFR % Positive [4, 5]: 25 ± 4.5% | EGFR % Strong Positive Cells [4, 5]: 0.5 ± 0.1% | EGFR % Weak Positive Cells [4, 5]: 1.4 ± 0.1% | EGFR %Negative Cells [4, 5]: 72.5 ± 1.5% | EGFR H Score [4, 5]: 3.0 | EGFR expression in representative IHC images ([4]; BT and WT PDX tumor tissues, 40X): moderate to high | EGFR % Moderate Positive Cells [4, 6]: 3.1 ± 2.1% | EGFR % Positive [4, 6]: 20 ± 10% | EGFR % Strong Positive Cells [4, 6]: 2.3 ± 1.5% | EGFR % Weak Positive Cells [4, 6]: 2.7 ± 0.7% | EGFR %Negative Cells [4, 6]: 71.9 ± 1.6% | EGFR H Score [4, 6]: 22.1
